Results published in patent US20040010001A1, “Methods and compositions for modulating cell proliferation and cell death” (priority 1999, published 2004).
Like-named read-outs stand apart in the source and are kept apart here.

Legend:
Format in all cases: cell-based
[1] = tested on: rat primary tumors, histocultures; experiment: Drug effect in histocultures of rat primary tumors (inhibition of 3H-thymidine incorporation); conditions: Histocultures, Primary, 96 hours, read-out: Concentration producing 50% inhibition
[2] = tested on: rat lymph node metastasis cells, monolayers; experiment: Drug effect in monolayers of rat lymph node metastasis cells (inhibition of bromodeoxyuridine incorporation); conditions: 96 h, read-out: Concentration producing 50% inhibition
[3] = tested on: Human prostate PC3 tumor cells; experiment: Drug treatment and extracellular bFGF (ELISA), LDH release, cell number; conditions: for Extracellular LDH, % of control / Extracellular bFGF, % of control / Extracellular concentration bFGF: 72 hours
Protocol: The experimental conditions are described briefly below. […] The remaining cell number at the end of treatment was counted using a Coulter counter. The extracellular bFGF concentration was measured using ELISA. The release of lactate dehydrogenase (LDH) into the extracellular culture medium is indicative of cell death and gives a measure of the release of cellular content into the culture medium. If the increase in extracellular bFGF level is due to the release of bFGF upon cell death and lysis, the increase in bFGF will be accompanied by an increase in LDH in the same extent. This would result in an higher bFGF level and a constant bFGF-to-LDH ratio. On the other hand, an increase in extracellular bFGF due to an increase in bFGF production and release of bFGF from cells by processes other than cell lysis will result in an higher bFGF level and an higher bFGF-to-LDH ratio.

[4] = tested on: Rat prostate MAT-LyLu; experiment: FGF-induced resistance, inhibition of BrdU incorporation; conditions: read-out: Drug concentration needed to produce 50% inhibition
Protocol: (§1) Prior to drug treatment, cells were incubated for 4 days with tumor CM or with r-aFGF ad/or r-bFGF-containing medium, supplemented with 1% FBS (final protein concentration adjusted to 2 mg/ml). The medium was renewed every other day.
(§2) The antiproliferative drug effect in histocultures was measured as inhibition of ^3H-thymidine incorporation quantified by autoradiography (Yen, W. C. et al. (1996) Pharm. Res. 13:1305-1312) and, for monolayers, as inhibition of BrdU incorporation or as reduction of total proteins by the sulforhodamine B assay (Au, J. L.-S. et al. (1998) Cancer Res. 58:2141-2148). For the latter, the two assays yielded qualitatively similar results. Cell kill induced by 96-hour drug treatment was monitored by the release of LDH into the culture medium. LDH activity was monitored by the conversion of tetrazolium to formazan (detected at 490 nm).
(§3) The experimental conditions are described briefly below. Cells were pretreated with human recombinant r-aFGF and/or r-bFGF for 96 hours and then with drugs for 96 hours. For the studies on cells derived from the human prostate, lung, pharynx, colon and breast cancer cells, the drug effect was determined by the inhibition of BrdU incorporation. For the study on the human leukemic cells, the drug effect was measured by the MTT assay, which measures the number of metabolically active cells (Alley, M. C. et al (1988) Cancer Res 48:589-601).

[5] = tested on: Human lung A459; experiment: as above; conditions: read-out: Drug concentration needed to produce 50% inhibition
Protocol: as §1, §2, §3

[6] = tested on: Human colon HT-29; experiment: as above; conditions: read-out: Drug concentration needed to produce 50% inhibition
Protocol: as §1, §2, §3

[7] = tested on: Human pharynx FaDu; experiment: as above; conditions: read-out: Drug concentration needed to produce 50% inhibition
Protocol: as §1, §2, §3

[8] = tested on: Human breast MCF7; experiment: as above; conditions: read-out: Drug concentration needed to produce 50% inhibition
Protocol: as §1, §2, §3

[9] = tested on: Human breast BC19 (subline of MCF7 transfected with mdr1); experiment: as above; conditions: read-out: Drug concentration needed to produce 50% inhibition
Protocol: as §1, §2, §3

[10] = tested on: Human prostate PC3; experiment: as above; conditions: Homo sapiens, read-out: Drug concentration needed to produce 50% inhibition
Protocol: as §1, §2, §3

[11] = 96 h, r-aFGF + r-bFGF 0.04 ± 1 ng/ml
[12] = 96 h, r-aFGF + r-bFGF 0.08 ± 1 ng/ml
[13] = 96 h, r-aFGF + r-bFGF 0.32 ± 1 ng/ml
[14] = 96 h, r-aFGF + r-bFGF 0.64 ± 1 ng/ml
[15] = 96 h, r-aFGF + r-bFGF 1 ± 1 ng/ml

SMILES: COc1cccc2c1C(=O)c1c(O)c3c(c(O)c1C2=O)C[C@@](O)(C(=O)CO)C[C@@H]3O[C@H]1C[C@H](N)[C@H](O)[C@H](C)O1 [Doxorubicin]
- IC50 [1]: 0.018 ± 0.011 µM
- IC50 ([2]; Monolayers (passage 0)): 0.031 ± 0.0023 µM
- IC50 ([2]; Monolayers (passage 1)): 0.0179 ± 0.0012 µM
- IC50 ([2]; Monolayers (passage 2)): 0.011 ± 0.0004 µM
- IC50 ([2]; Monolayers (passage 3)): 0.0078 ± 0.0005 µM
- Remaining cell number at 72 hours (% of control) ([3]; drug concentration 20 NM): 84%
- Remaining cell number at 72 hours × 10^6 ([3]; drug concentration 20 NM): 2.1 × 10^6
- Extracellular LDH, % of control ([3]; drug concentration 20 NM): 119 % of control
- Extracellular bFGF, % of control ([3]; drug concentration 20 NM): 124 % of control
- Extracellular concentration bFGF ([3]; drug concentration 20 NM): 5.87 pg/mL
- Remaining cell number at 72 hours (% of control) ([3]; drug concentration 60 NM): 48%
- Remaining cell number at 72 hours × 10^6 ([3]; drug concentration 60 NM): 1.2 × 10^6
- Extracellular LDH, % of control ([3]; drug concentration 60 NM): 173 % of control
- Extracellular bFGF, % of control ([3]; drug concentration 60 NM): 239 % of control
- Extracellular concentration bFGF ([3]; drug concentration 60 NM): 11.3 pg/mL
- Remaining cell number at 72 hours (% of control) ([3]; drug concentration 200 NM): 16%
- Remaining cell number at 72 hours × 10^6 ([3]; drug concentration 200 NM): 0.4 × 10^6
- Extracellular LDH, % of control ([3]; drug concentration 200 NM): 316 % of control
- Extracellular bFGF, % of control ([3]; drug concentration 200 NM): 461 % of control
- Extracellular concentration bFGF ([3]; drug concentration 200 NM): 21.8 pg/mL
- IC50 ([4]; r-bFGF 0 ng/ml): 0.0103 µM
- IC50 ([4]; r-bFGF 1 ng/ml): 0.0183 µM
- IC50 ([4]; r-bFGF 10 ng/ml): 0.54 µM
- IC50 ([4]; r-bFGF 50 ng/ml): 0.238 µM
- IC50 ([5]; A459, 96 h, r-aFGF + r-bFGF 0 ng/ml): 0.122 µM
- IC50 ([5]; A459, 96 h, r-aFGF + r-bFGF 0.04 ± 1 ng/ml): 0.118 µM
- IC50 ([5]; A459, 96 h, r-aFGF + r-bFGF 0.08 ± 1 ng/ml): 0.159 µM
- IC50 ([5]; A459, 96 h, r-aFGF + r-bFGF 0.16 ± 1 ng/ml): 0.238 µM
- IC50 ([5]; A459, 96 h, r-aFGF + r-bFGF 0.32 ± 1 ng/ml): 0.309 µM
- IC50 ([5]; A459, 96 h, r-aFGF + r-bFGF 0.64 ± 1 ng/ml): 0.386 µM
- IC50 ([5]; A459, 96 h, r-aFGF + r-bFGF 1 ± 1 ng/ml): 0.582 µM
- IC50 ([5]; A459, r-aFGF 0 ng/ml): 0.122 µM
- IC50 ([5]; A459, r-aFGF 1 ng/ml): 0.12 µM
- IC50 ([5]; A459, r-aFGF 10 ng/ml): 0.123 µM
- IC50 ([5]; A459, r-aFGF 50 ng/ml): 0.118 µM
- IC50 ([5]; A459, r-bFGF 0 ng/ml): 0.119 µM
- IC50 ([5]; A459, r-bFGF 1 ng/ml): 0.118 µM
- IC50 ([5]; A459, r-bFGF 10 ng/ml): 0.238 µM
- IC50 ([5]; A459, r-bFGF 50 ng/ml): 0.285 µM
- IC50 ([6]; HT-29, 96 h, r-aFGF + r-bFGF 0 ng/ml): 0.0302 µM
- IC50 ([6]; HT-29, 96 h, r-aFGF + r-bFGF 0.04 ± 1 ng/ml): 0.0291 µM
- IC50 ([6]; HT-29, 96 h, r-aFGF + r-bFGF 0.08 ± 1 ng/ml): 0.03 µM
- IC50 ([6]; HT-29, 96 h, r-aFGF + r-bFGF 0.16 ± 1 ng/ml): 0.0305 µM
- IC50 ([6]; HT-29, 96 h, r-aFGF + r-bFGF 0.32 ± 1 ng/ml): 0.0481 µM
- IC50 ([6]; HT-29, 96 h, r-aFGF + r-bFGF 0.64 ± 1 ng/ml): 0.0727 µM
- IC50 ([6]; HT-29, 96 h, r-aFGF + r-bFGF 1 ± 1 ng/ml): 0.131 µM
- IC50 ([6]; HT-29, r-aFGF 0 ng/ml): 0.0302 µM
- IC50 ([6]; HT-29, r-aFGF 1 ng/ml): 0.0321 µM
- IC50 ([6]; HT-29, r-aFGF 10 ng/ml): 0.0303 µM
- IC50 ([6]; HT-29, r-aFGF 50 ng/ml): 0.03 µM
- IC50 ([6]; HT-29, r-bFGF 0 ng/ml): 0.0241 µM
- IC50 ([6]; HT-29, r-bFGF 1 ng/ml): 0.0244 µM
- IC50 ([6]; HT-29, r-bFGF 10 ng/ml): 0.0245 µM
- IC50 ([6]; HT-29, r-bFGF 50 ng/ml): 0.0261 µM
- IC50 ([7]; 96 h, r-aFGF + r-bFGF 0 ng/ml): 0.0135 µM
- IC50 [7, 11]: 0.0135 µM
- IC50 [7, 12]: 0.014 µM
- IC50 ([7]; 96 h, r-aFGF + r-bFGF 0.16 ± 1 ng/ml): 0.0137 µM
- IC50 [7, 13]: 0.0141 µM
- IC50 [7, 14]: 0.0275 µM
- IC50 [7, 15]: 0.054 µM
- IC50 ([7]; r-aFGF 0 ng/ml): 0.0135 µM
- IC50 ([7]; r-aFGF 1 ng/ml): 0.013 µM
- IC50 ([7]; r-aFGF 10 ng/ml): 0.0137 µM
- IC50 ([7]; r-aFGF 50 ng/ml): 0.014 µM
- IC50 ([7]; r-bFGF 0 ng/ml): 0.0142 µM
- IC50 ([7]; r-bFGF 1 ng/ml): 0.0139 µM
- IC50 ([7]; r-bFGF 10 ng/ml): 0.0141 µM
- IC50 ([7]; r-bFGF 50 ng/ml): 0.0137 µM
- IC50 ([8]; MCF7, r-bFGF 0 ng/ml): 0.0169 µM
- IC50 ([8]; MCF7, r-bFGF 0.01 ng/ml): 0.0213 µM
- IC50 ([8]; MCF7, r-bFGF 0.1 ng/ml): 0.0376 µM
- IC50 ([8]; MCF7, r-bFGF 1 ng/ml): 0.595 µM
- IC50 ([9]; r-bFGF 0 ng/ml): 0.128 µM
- IC50 ([9]; r-bFGF 0.01 ng/ml): 0.15 µM
- IC50 ([9]; r-bFGF 0.1 ng/ml): 0.27 µM
- IC50 ([9]; r-bFGF 1 ng/ml): 0.407 µM
- IC50 ([10]; 96 h, r-aFGF + r-bFGF 0 ng/ml): 0.0082 µM
- IC50 [10, 11]: 0.0085 µM
- IC50 [10, 12]: 0.0152 µM
- IC50 [10, 13]: 0.0622 µM
- IC50 [10, 14]: 0.0848 µM
- IC50 [10, 15]: 0.107 µM
- IC50 ([10]; 96 h, r-aFGF + r-bFGF): 0.0353 µM
- IC50 ([10]; r-aFGF 0 ng/ml): 0.0082 µM
- IC50 ([10]; r-aFGF 1 ng/ml): 0.0083 µM
- IC50 ([10]; r-aFGF 10 ng/ml): 0.0081 µM
- IC50 ([10]; r-aFGF 50 ng/ml): 0.0084 µM
- IC50 ([10]; r-bFGF 0 ng/ml): 0.0081 µM
- IC50 ([10]; r-bFGF 1 ng/ml): 0.00851 µM
- IC50 ([10]; r-bFGF 10 ng/ml): 0.0238 µM
- IC50 ([10]; r-bFGF 50 ng/ml): 0.0508 µM
